According to ChEMBL document CHEMBL1142262, “New QSAR combined strategy for the design of A1 adenosine receptor agonists” (Bioorg Med Chem, 2008):

biological target: T1, Adenosine receptor A1 (Rattus norvegicus, UniProt P25099); assay: Displacement of [3H]R-N6-phenylisopropyladenosine from adenosine A1 receptor in rat cerebral cortical membrane; type: cell membranes; settings: read-out: -Log Ki (converted)
T1 sequence (P25099 whole entry): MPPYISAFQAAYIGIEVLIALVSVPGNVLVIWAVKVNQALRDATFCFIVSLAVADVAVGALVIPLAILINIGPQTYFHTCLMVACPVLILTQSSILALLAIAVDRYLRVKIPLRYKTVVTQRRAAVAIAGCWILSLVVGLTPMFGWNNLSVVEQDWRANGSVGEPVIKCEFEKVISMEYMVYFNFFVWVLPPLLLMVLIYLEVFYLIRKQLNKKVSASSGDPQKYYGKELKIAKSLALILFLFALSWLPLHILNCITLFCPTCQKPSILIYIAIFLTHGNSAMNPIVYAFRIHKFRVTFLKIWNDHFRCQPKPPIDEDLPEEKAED

OCC1CC=CC1n1cnc2c(NC3CCCC3)ncnc21 (racemic) gave a Ki of 333 µM.

same assay, conditions: read-out: Ki

Going from OCC1CC=CC1n1cnc2c(NC3CCCC3)ncnc21 (racemic) to OCC1CC=CC1n1cnc2c(NC3CC3)ncnc21 (racemic), the Ki rises from 3 µM to 32.3 µM (11-fold). The first binds more tightly here.

OCC1CC=CC1n1cnc2c(NCc3ccccc3I)ncnc21 (racemic) was tested, and the Ki was 25.5 µM.

biological target: T2, Adenosine receptor A1 (Rattus norvegicus) (UniProt P25099); assay: Displacement of [3H]R-N6-phenylisopropyladenosine from adenosine A1 receptor in rat cerebral cortical membrane at 100 uM; type: cell membranes; settings: not given
T2 sequence (whole entry): T1 sequence (P25099 whole entry)

First: CNC(=O)C1CC=CC1n1cnc2c(N)ncnc21 (racemic)
Second: CNC(=O)C1CC=CC1n1cnc2c(NC3CC3)ncnc21 (racemic)
The inhibition of the first is lower: 22% for the first, 50% for the second.

Going from CNC(=O)C1CC=CC1n1cnc2c(NC3CCCC3)ncnc21 (racemic) to CNC(=O)C1CCCC1n1cnc2c(NC3CCCC3)ncnc21 (racemic), the inhibition rises from less than 10% to 31%.

Going from CNC(=O)C1CC=CC1n1cnc2c(NCc3ccccc3)ncnc21 (racemic) to CNC(=O)C1CCCC1n1cnc2c(NCc3ccccc3)ncnc21 (racemic), the inhibition rises from less than 10% to 26%.

Going from CNC(=O)C1CCCC1n1cnc2c(N)ncnc21 (racemic) to CNC(=O)C1CCCC1n1cnc2c(NC3CC3)ncnc21 (racemic), the inhibition falls from 25% to less than 10%.

First: CNC(=O)C1CCCC1n1cnc2c(NCc3ccccc3I)ncnc21 (racemic)
Second: NNc1ncnc2c1ncn2C1C=CCC1CO (racemic)
The inhibition of the first is lower: less than 10% for the first, 29% for the second.
